Target: Human MGAT-2 (Homo sapiens (Human), UniProt Q3SYC2)
Experiment: MGAT LCMS Assay (human MGAT-2);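 further: diolein product quantified by LC/MS with positive APCI, expressed as peak area ratio versus an internal standard, and this ratio used to derive IC50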
Assay type: biochemical
Conditions: human MGAT-2 membranes expressed in Sf9 cells; 2-oleoylglycerol and oleoyl-Coenzyme A; read-out: h-MGAT2 IC50 (nM) LCMS Assay

Human MGAT-2, sequence (Q3SYC2 whole entry): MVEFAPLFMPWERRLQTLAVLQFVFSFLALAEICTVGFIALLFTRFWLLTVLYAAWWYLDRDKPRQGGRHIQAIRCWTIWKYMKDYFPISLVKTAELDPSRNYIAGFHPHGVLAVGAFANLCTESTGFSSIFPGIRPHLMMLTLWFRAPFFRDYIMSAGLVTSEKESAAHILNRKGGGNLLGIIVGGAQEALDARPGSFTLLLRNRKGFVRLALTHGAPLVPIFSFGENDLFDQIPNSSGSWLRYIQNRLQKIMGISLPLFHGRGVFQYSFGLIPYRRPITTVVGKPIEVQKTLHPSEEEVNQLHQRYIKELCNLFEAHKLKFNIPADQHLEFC

IC50 [nM] | Structure (SMILES)
118 | Cc1ccc(C2=C(C#N)C(=O)NC(c3ccc(OCCCC(F)(F)F)cc3)(C(F)(F)F)C2)cc1C (stereo not shown) [Example 217]
166 | COc1ccc(C2=C(C#N)C(=O)NC(c3ccc(OCCCC(F)(F)F)cc3)(C(F)(F)F)C2)cc1F (stereo not shown) [Example 218]
172 | Cc1ccc(C2=C(C#N)C(=O)NC(c3ccc(OCCCC(F)(F)F)cc3)(C(F)(F)F)C2)cc1F (stereo not shown) [Example 219]
13 | N#CC1=C(c2ccc(Cl)c(F)c2)CC(c2ccc(OCCCC(F)(F)F)cc2)(C(F)(F)F)NC1=O (stereo not shown) [Example 220]
152 | Cc1cc(C2=C(C#N)C(=O)NC(c3ccc(OCCCC(F)(F)F)cc3)(C(F)(F)F)C2)ccc1Cl (stereo not shown) [Example 221]
733 | N#CC1=C(c2ccc(Cl)c(Cl)c2)CC(c2ccc(OCCCC(F)(F)F)cc2)(C(F)(F)F)NC1=O (stereo not shown) [Example 222]
112 | COc1ccc(C2=C(C#N)C(=O)NC(c3ccc(OCCCC(F)(F)F)cc3)(C(F)(F)F)C2)cc1Cl (stereo not shown) [Example 223]
206 | CCOc1ccc(C2=C(C#N)C(=O)NC(c3ccc(OCCCC(F)(F)F)cc3)(C(F)(F)F)C2)cc1Cl (stereo not shown) [Example 226]
63 | Cc1ccc(C2=C(C#N)C(=O)NC(c3cnn(CCCCC(F)(F)F)c3)(C(F)(F)F)C2)cc1 (stereo not shown) [Example 227]
7 | COc1ccc(C(=O)NC2=C(c3ccc(C)cc3)CC(c3cnn(CCCCCC(F)(F)F)c3)(C(F)(F)F)NC2=O)cc1 (stereo not shown) [Example 228]
25 | COc1ccc(C(=O)NC2=C(c3ccc(C)cc3)CC(c3cnn(CCCCC(F)(F)F)c3)(C(F)(F)F)NC2=O)cc1 (stereo not shown) [Example 229]
1530 | CCCCCn1cc(C2(C(F)(F)F)CC(c3ccc(C)cc3)=C(C#N)C(=O)N2)cn1 (stereo not shown) [Example 230]
34 | Cc1ccc(C2=C(NC(=O)c3ccn(C)n3)C(=O)NC(c3ccc(OCCCC(F)(F)F)cc3)(C(F)(F)F)C2)cc1 (stereo not shown) [Example 231]
6 | COc1ccc(C(=O)NC2=C(c3ccc(C)cc3)CC(c3ccc(OCCCC(F)(F)F)cc3)(C(F)(F)F)NC2=O)nn1 (stereo not shown) [Example 232]
639 | Cc1ccc(C2=C(c3nn[nH]n3)C(=O)NC(c3ccc(Br)cc3)(C(F)(F)F)C2)cc1 (stereo not shown) [Example 233]
40 | O=C1NC(c2ccc(OCCCC(F)(F)F)cc2)(C(F)(F)F)CC(c2ccc(Br)cc2)=C1c1nn[nH]n1 (stereo not shown) [Example 234]
22 | O=C1NC(c2ccc(OCCCC(F)(F)F)cc2)(C(F)(F)F)CC(c2ccc(C3CC3)cc2)=C1c1nn[nH]n1 (stereo not shown) [Example 235]
489 | O=C1NC(c2ccc(OCCCC(F)(F)F)cc2)(C(F)(F)F)CC(c2ccc(-n3cccn3)cc2)=C1c1nn[nH]n1 (stereo not shown) [Example 236]
130 | O=C1NC(c2ccc(OCCCC(F)(F)F)cc2)(C(F)(F)F)CC(c2ccc3c(c2)CCO3)=C1c1nn[nH]n1 (stereo not shown) [Example 237]
7 | CN(C)c1ccc(C2=C(c3nn[nH]n3)C(=O)NC(c3ccc(OCCCC(F)(F)F)cc3)(C(F)(F)F)C2)cc1 (stereo not shown) [Example 238]
15 | Cc1ccc(C2=C(NC(=O)CS(C)(=O)=O)C(=O)NC(c3ccc(OCCCC(F)(F)F)cc3)(C(F)(F)F)C2)cc1 (stereo not shown) [Example 239]
7 | COc1ccc(C2=C(c3nn[nH]n3)C(=O)NC(c3ccc(OCC(F)(F)F)cc3)(C(F)(F)F)C2)cc1 (stereo not shown) [Example 240]

IC50 [nM] | Structure (SMILES)
44 | O=C1NC(c2ccc(OCCC(F)(F)F)cc2)(C(F)(F)F)CC(c2ccc(OC(F)(F)F)cc2)=C1c1nn[nH]n1 (stereo not shown) [Example 242]
14 | O=C1NC(c2ccc(OCCCC(F)(F)F)cc2)(C(F)(F)F)CC(c2ccc(OC(F)(F)F)cc2)=C1c1nn[nH]n1 (stereo not shown) [Example 243]
61 | COc1ccc(C2=C(c3nn[nH]n3)C(=O)NC(c3ccc(OCCCC(F)(F)F)cc3)(C(F)(F)F)C2)cc1 (stereo not shown) [Example 244]
46 | O=C1NC(c2ccc(OCCCC(F)(F)F)cc2)(C(F)(F)F)CC(c2ccc(OC(F)F)cc2)=C1c1nn[nH]n1 (stereo not shown) [Example 245]
36 | Cc1ccc(C2=C(NC(=O)c3cn(C)nn3)C(=O)NC(c3ccc(OCCCC(F)(F)F)cc3)(C(F)(F)F)C2)cc1 (stereo not shown) [Example 246]
51 | COc1ccc(C2=C(c3nn[nH]n3)C(=O)NC(c3ccc(OCCCCCC(F)(F)F)cc3)(C(F)(F)F)C2)cc1 (stereo not shown) [Example 247]
8 | O=C1NC(c2ccc(OCCCCCC(F)(F)F)cc2)(C(F)(F)F)CC(c2ccc(OCC(F)F)cc2)=C1c1nn[nH]n1 (stereo not shown) [Example 248]
185 | Cc1ccc(C2=C(NC(=O)c3ccccc3F)C(=O)NC(c3ccc(OCCCC(F)(F)F)cc3)(C(F)(F)F)C2)cc1 (stereo not shown) [Example 249]
243 | CC(=O)C(=O)NC1=C(c2ccc(C)cc2)CC(c2ccc(OCCCC(F)(F)F)cc2)(C(F)(F)F)NC1=O (stereo not shown) [Example 250]
3 | CS(=O)(=O)CC(=O)NC1=C(c2ccc(OCC(F)F)cc2)CC(c2ccc(OCCCC(F)(F)F)cc2)(C(F)(F)F)NC1=O (stereo not shown) [Example 251]
7 | COc1ccc(C2=C(NC(=O)CS(C)(=O)=O)C(=O)NC(c3ccc(OCCCC(F)(F)F)cc3)(C(F)(F)F)C2)cc1 (stereo not shown) [Example 252]
411 | Cc1ccc(C2=C(NC(=O)[C@@H](C)O)C(=O)NC(c3ccc(OCCCC(F)(F)F)cc3)(C(F)(F)F)C2)cc1 (stereo partly shown) [Example 253]
170 | CCNC(=O)NC1=C(c2ccc(OCC(F)F)cc2)CC(c2ccc(OCCCC(F)(F)F)cc2)(C(F)(F)F)NC1=O (stereo not shown) [Example 254]
702 | CCNC(=O)NC1=C(c2ccc(C)cc2)CC(c2ccc(OCCCC(F)(F)F)cc2)(C(F)(F)F)NC1=O (stereo not shown) [Example 255]
22 | Cc1ccc(C2=C(C#N)C(=O)NC(c3ccc(OCCCC(F)(F)F)cc3)(C(F)(F)F)C2)cc1F (stereo not shown) [Example 256]
1150 | COc1ccc(C2=C(C#N)C(=O)NC(c3ccc(OCCCC(F)(F)F)cc3)(C(F)(F)F)C2)cc1Cl (stereo not shown) [Example 258]
15 | Cc1ccc(C2=C(C#N)C(=O)NC(c3ccc(OCCCC(F)(F)F)cc3)(C(F)(F)F)C2)cc1Cl (stereo not shown) [Example 259]
56 | COCc1ccc(C2=C(C#N)C(=O)NC(c3ccc(OCCCC(F)(F)F)cc3)(C(F)(F)F)C2)cc1 (stereo not shown) [Example 260]
1220 | N#CC1=C(c2ccc(OC(F)(F)F)c(F)c2)CC(c2ccc(OCCCC(F)(F)F)cc2)(C(F)(F)F)NC1=O (stereo not shown) [Example 261]
96 | COc1cc(C2=C(C#N)C(=O)NC(c3ccc(OCCCC(F)(F)F)cc3)(C(F)(F)F)C2)ccc1C (stereo not shown) [Example 262]
103 | CCOc1ccc(C2=C(C#N)C(=O)NC(c3ccc(OCCCC(F)(F)F)cc3)(C(F)(F)F)C2)cc1Cl (stereo not shown) [Example 263]
46 | CCOc1ccc(C2=C(C#N)C(=O)NC(c3ccc(OCCCC(F)(F)F)cc3)(C(F)(F)F)C2)cc1F (stereo not shown) [Example 264]

IC50 [nM] | Structure (SMILES)
796 | Cc1ccc(C2=C(c3nn[nH]n3)C(=O)NC(c3cccc(OCCCC(F)(F)F)c3)(C(F)(F)F)C2)cc1 (stereo not shown) [Example 267]
12 | O=C1NC(c2ccc(OCCCC(F)(F)F)cc2)(C(F)(F)F)CC(c2ccc(CC(F)(F)F)cc2)=C1c1nn[nH]n1 (stereo not shown) [Example 271]
1 | O=C1NC(c2ccc(OCCCCCC(F)(F)F)cc2F)(C(F)(F)F)CC(c2ccc(OC(F)F)cc2)=C1c1nn[nH]n1 (stereo not shown) [Example 274]
2 | O=C1NC(c2ccc(OCCCC(F)(F)F)cc2)(C(F)(F)F)CC(c2ccc(OC(F)F)cc2)=C1NC(=O)c1ccncc1 (stereo not shown) [Example 275]
2 | O=C1NC(c2ccc(OCCCCCC(F)(F)F)cc2F)(C(F)(F)F)CC(c2ccc3ccccc3c2)=C1c1nn[nH]n1 (stereo not shown) [Example 276]
2 | O=C1NC(c2ccc(OCCCC(F)(F)F)cc2F)(C(F)(F)F)CC(c2ccc(CC3CC3)cc2)=C1c1nn[nH]n1 (stereo not shown) [Example 277]
2 | Cc1ccc(C2=C(c3nn[nH]n3)C(=O)NC(c3ccc(OCCCCC(F)(F)F)cc3F)(C(F)(F)F)C2)cc1 (stereo not shown) [Example 278]
2 | Cc1ccc(C2=C(NC(=O)CS(C)(=O)=O)C(=O)NC(c3ccc(OCc4ccccc4)cc3)(C(F)(F)F)C2)cc1 (stereo not shown) [Example 279]
2 | O=C(Nc1cccnc1)C1=C(c2ccc(OC(F)F)cc2)CC(c2ccc(OCCCC(F)(F)F)cc2)(C(F)(F)F)NC1=O (stereo not shown) [Example 280]
3 | Cc1ccc(C2=C(C(=O)Nc3cc(C)no3)C(=O)NC(c3ccc(OCCCC(F)(F)F)cc3)(C(F)(F)F)C2)cc1 (stereo not shown) [Example 281]
3 | CCOc1ccc(C2=C(c3nn[nH]n3)C(=O)NC(c3ccc(OCCCCCC(F)(F)F)cc3F)(C(F)(F)F)C2)cc1 (stereo not shown) [Example 283]
4 | O=C1NC(c2ccc(OCCCCCC(F)(F)F)cc2F)(C(F)(F)F)CC(c2ccc(CC(F)(F)F)cc2)=C1c1nn[nH]n1 (stereo not shown) [Example 284]
4 | Cc1ccc(C2=C(c3nn[nH]n3)C(=O)NC(c3ccc(OCCC4CC4)cc3)(C(F)(F)F)C2)cc1 (stereo not shown) [Example 285]
4 | Cc1ccc(C2=C(c3nn[nH]n3)C(=O)NC(c3ccc(OCCCC(F)(F)F)cc3)(C(F)(F)F)C2)c(F)c1 (stereo not shown) [Example 286]
13 | Cc1ccc(C2=C(c3nn[nH]n3)C(=O)NC(c3ccc(OCCCCCC(F)(F)F)c(C)c3)(C(F)(F)F)C2)cc1 (stereo not shown) [Example 287]
19 | Cc1ccc(C2=C(c3nn[nH]n3)C(=O)NC(c3ccc(OCC4CC(F)(F)C4)cc3)(C(F)(F)F)C2)cc1 (stereo not shown) [Example 288]
19 | Cc1ccc(C2=C(c3nn[nH]n3)C(=O)NC(c3ccc(C#CCC4CCCCC4)cc3)(C(F)(F)F)C2)cc1 (stereo not shown) [Example 289]
56 | Cc1ccc(C2=C(c3nn[nH]n3)C(=O)NC(c3ccc(C#CCOCc4ccccc4)cc3)(C(F)(F)F)C2)cc1 (stereo not shown) [Example 290]
178 | Cc1ccc(C2=C(c3nn[nH]n3)C(=O)NC(c3ccc(C#CC4CCCCC4)cc3)(C(F)(F)F)C2)cc1 (stereo not shown) [Example 291]
304 | CCCCCCCc1cnc(C2(C(F)(F)F)CC(c3ccc(C)cc3)=C(c3nn[nH]n3)C(=O)N2)s1 (stereo not shown) [Example 292]

Structure (SMILES) | IC50 [nM]
COOSNc1ccc(C2=C(C#N)C(=O)NC(c3ccc(OCCCC(F)(F)F)cc3)(C(F)(F)F)C2)cc1 (stereo not shown) [Example 225] | 889
COOCNc1ccc(C2=C(C#N)C(=O)NC(c3ccc(OCCCC(F)(F)F)cc3)(C(F)(F)F)C2)cc1 (stereo not shown) [Example 257] | 421
CCOP(=O)(CC(=O)NC1=C(c2ccc(C)cc2)CC(c2ccc(OCCCC(F)(F)F)cc2)(C(F)(F)F)NC1=O)OCC (stereo not shown) [Example 282] | 3
